Reference: ChEMBL document CHEMBL1275397, “Effects on molecular conformation and anticoagulant activities of 1,6-anhydrosugars at the reducing terminal of antithrombin-binding octasaccharides isolated from low-molecular-weight heparin enoxaparin” (J Med Chem, 2010)

Tests used:
[1] = Binding affinity to human antithrombin in HEPES buffer containing 0.1 M sodium chloride assessed as increase of serpin intrinsic fluorescence by fluorospectrophotometric analysis
[2] = Binding affinity to human antithrombin in HEPES buffer containing 0.25 M sodium chloride assessed as increase of serpin intrinsic fluorescence by fluorospectrophotometric analysis
[3] = target: Coagulation factor X (Homo sapiens) (UniProt P00742); test: Inhibition of factor 10a in aqueous buffer solutions assessed as specific activity of enzyme
Chain of Coagulation factor X (Homo sapiens) (P00742 41-179 limits assumed): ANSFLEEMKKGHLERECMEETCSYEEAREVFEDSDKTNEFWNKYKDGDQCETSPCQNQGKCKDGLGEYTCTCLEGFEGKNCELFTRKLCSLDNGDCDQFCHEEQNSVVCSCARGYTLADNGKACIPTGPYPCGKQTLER
Chain of Coagulation factor X (Homo sapiens) (P00742 235-488 limits assumed): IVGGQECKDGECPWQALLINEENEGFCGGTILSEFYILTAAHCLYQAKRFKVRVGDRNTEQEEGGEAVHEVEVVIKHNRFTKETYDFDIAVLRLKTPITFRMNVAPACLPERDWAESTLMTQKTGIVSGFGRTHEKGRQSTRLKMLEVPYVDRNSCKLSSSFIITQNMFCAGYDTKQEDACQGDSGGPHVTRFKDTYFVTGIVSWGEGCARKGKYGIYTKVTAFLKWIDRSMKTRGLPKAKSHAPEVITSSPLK

[4] = target: Coagulation factor X (Homo sapiens) (UniProt P00742); test: Inhibition of factor 10a in human plasma assessed as specific activity of enzyme; assay type: cell-free
[5] = Binding affinity to human antithrombin in HEPES buffer containing 0.50 M sodium chloride assessed as increase of serpin intrinsic fluorescence by fluorospectrophotometric analysis

Kd [1] [µM]	Kd [2] [µM]	Activity [3] [U/mg]	Activity [4] [U/mg]	Kd [5] [µM]	Compound
1.23	> 10	39.6	39.3	–	CC(=O)N[C@H]1[C@@H](O[C@H]2[C@H](O)[C@@H](O)[C@H](O[C@H]3[C@H](OS(=O)(=O)O)[C@@H](NS(=O)(=O)O)[C@@H](O[C@H]4[C@H](O)[C@@H](OS(=O)(=O)O)[C@H](O[C@H]5[C@H](O)[C@@H](NS(=O)(=O)O)[C@H]6OC[C@H]5O6)O[C@H]4C(=O)O)O[C@@H]3COS(=O)(=O)O)O[C@@H]2C(=O)O)O[C@H](COS(=O)(=O)O)[C@@H](O[C@@H]2O[C@@H](C(=O)O)[C@@H](O[C@H]3O[C@H](COS(=O)(=O)O)[C@@H](O[C@@H]4OC(C(=O)O)=C[C@H](O)[C@H]4OS(=O)(=O)O)[C@H](O)[C@H]3NS(=O)(=O)O)[C@H](O)[C@H]2O)[C@@H]1O
0.12	–	–	–	2.74	CC(=O)N[C@H]1[C@@H](O[C@H]2[C@H](O)[C@@H](O)[C@H](O[C@H]3[C@H](OS(=O)(=O)O)[C@@H](NS(=O)(=O)O)[C@@H](O[C@H]4[C@H](O)[C@@H](OS(=O)(=O)O)[C@H](O[C@H]5[C@H](O)[C@@H](NS(=O)(=O)O)[C@@H](O)O[C@@H]5COS(=O)(=O)O)O[C@H]4C(=O)O)O[C@@H]3COS(=O)(=O)O)O[C@@H]2C(=O)O)O[C@H](COS(=O)(=O)O)[C@@H](O[C@@H]2O[C@@H](C(=O)O)[C@@H](O[C@H]3O[C@H](COS(=O)(=O)O)[C@@H](O[C@@H]4OC(C(=O)O)=C[C@H](O)[C@H]4OS(=O)(=O)O)[C@H](O)[C@H]3NS(=O)(=O)O)[C@H](O)[C@H]2O)[C@@H]1O
0.9	> 10	51.4	49.6	–	CC(=O)N[C@H]1[C@@H](O[C@H]2[C@H](O)[C@@H](O)[C@H](O[C@H]3[C@H](OS(=O)(=O)O)[C@@H](NS(=O)(=O)O)[C@@H](O[C@H]4[C@H](O)[C@@H](OS(=O)(=O)O)[C@H](O[C@H]5[C@H](O)[C@H](NS(=O)(=O)O)[C@H]6OC[C@H]5O6)O[C@H]4C(=O)O)O[C@@H]3COS(=O)(=O)O)O[C@@H]2C(=O)O)O[C@H](COS(=O)(=O)O)[C@@H](O[C@@H]2O[C@@H](C(=O)O)[C@@H](O[C@H]3O[C@H](COS(=O)(=O)O)[C@@H](O[C@@H]4OC(C(=O)O)=C[C@H](O)[C@H]4OS(=O)(=O)O)[C@H](O)[C@H]3NS(=O)(=O)O)[C@H](O)[C@H]2O)[C@@H]1O
